Experimental data published in ChEMBL document CHEMBL1125810, “Acyclic analogues of 2-(4-phenylpiperidino)cyclohexanol (vesamicol): conformationally mobile inhibitors of vesicular acetylcholine transport” (J Med Chem, 1991).

Target: T1, Vesicular acetylcholine transporter (Torpedo californica, UniProt P81721)
T1 sequence (P81721 whole entry): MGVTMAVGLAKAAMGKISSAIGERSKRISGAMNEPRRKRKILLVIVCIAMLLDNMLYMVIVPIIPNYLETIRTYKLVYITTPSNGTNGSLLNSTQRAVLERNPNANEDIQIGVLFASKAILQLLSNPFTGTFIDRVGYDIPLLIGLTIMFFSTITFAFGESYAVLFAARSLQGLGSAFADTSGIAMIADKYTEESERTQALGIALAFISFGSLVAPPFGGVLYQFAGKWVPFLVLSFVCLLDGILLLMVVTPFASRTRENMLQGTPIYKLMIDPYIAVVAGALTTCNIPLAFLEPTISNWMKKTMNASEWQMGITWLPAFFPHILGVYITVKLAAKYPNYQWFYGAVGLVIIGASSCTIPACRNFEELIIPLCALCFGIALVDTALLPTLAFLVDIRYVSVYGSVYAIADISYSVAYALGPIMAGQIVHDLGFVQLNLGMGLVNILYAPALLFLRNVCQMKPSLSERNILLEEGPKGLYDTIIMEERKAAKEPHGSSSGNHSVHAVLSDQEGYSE
Experiment: Displacement of [3H]vesamicol from Vesamicol receptor of Torpedo californica
Set-up: species or system Tetronarce californica

Compound	IC50 [nM]
OC(Cc1ccc2ccccc2c1)CN1CCC(c2ccccc2)CC1 (centres undefined)	145
OC(Cc1cccc(Br)c1)CN1CCN(c2ccccc2)CC1 (centres undefined)	990
OC(Cc1ccc(Br)cc1)CN1CCN(c2ccccc2)CC1 (centres undefined)	1540
OC(Cc1cccc2ccccc12)CN1CCC(c2ccccc2)CC1 (centres undefined)	1400

Second part, the compound after the results:

IC50 [nM]	Compound
73	OC(Cc1cccc(Br)c1)CN1CCC(c2ccccc2)CC1 (centres undefined)
520	Oc1cccc(CC(O)CN2CCC(c3ccccc3)CC2)c1 (centres undefined)
115	COc1cccc(CC(O)CN2CCC(c3ccccc3)CC2)c1 (centres undefined)
73	OC(Cc1cccc(I)c1)CN1CCC(c2ccccc2)CC1 (centres undefined)
220	Oc1ccc(CC(O)CN2CCC(c3ccccc3)CC2)cc1 (centres undefined)
